Laboratory results as given in PubChem BioAssay AID248 (DTP/NCI, 2004).
“And” between values parts separate entries of the source, which are not always exact repeats. Identical values can stand only once. Toxic doses and inconclusive results are not listed.

Tested on: L1210 leukemia ip in BDF1 mice, survival T/C
Assay: NCI In Vivo Anticancer Drug Screen. Data for tumor model L1210 Leukemia (intraperitoneal) in B6D2F1 (BDF1) mice
Conditions: endpoint: mean survival time, higher = longer survival
In short: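 Survival endpoint. Drug-treated group vs vehicle group, expressed as T divided by C. Tumor passaged by transplantation.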

[1] = dose: 100.0 mg/kg/injection, schedule: Q01DX009 (ip), vehicle: Klucel (hydroxypropylcellulose) (HPC)

In the case of `CC(=O)[O][Hg][c]1sc2ccccc2c1C`, the T/C (dose: 0.5 mg/kg/injection, schedule: Q01DX015 (ip), vehicle: other) was 106 % of control, the T/C (dose: 1.0 mg/kg/injection, schedule: Q01DX015 (ip), vehicle: other) was 98 % of control and the T/C (dose: 1.5 mg/kg/injection, schedule: Q04DX003 (ip), vehicle: saline) was 103 % of control. The T/C (dose: 2.0 mg/kg/injection, schedule: Q01DX015 (ip), vehicle: other) was 98 % of control, the T/C (dose: 2.12 mg/kg/injection, schedule: Q01DX009 (ip), vehicle: saline with Tween-80) was 98 % of control and the T/C (dose: 3.0 mg/kg/injection, schedule: Q01DX001 (ip), vehicle: acetone) was 101 % of control. The T/C (dose: 3.0 mg/kg/injection, schedule: Q04DX003 (ip), vehicle: saline) was 95 % of control, the T/C (dose: 4.0 mg/kg/injection, schedule: Q01DX015 (ip), vehicle: other) was 96 % of control and the T/C (dose: 4.25 mg/kg/injection, schedule: Q01DX009 (ip), vehicle: saline with Tween-80) was 95 % of control. The T/C (dose: 6.0 mg/kg/injection, schedule: Q01DX001 (ip), vehicle: acetone) was 95 % of control, the T/C (dose: 6.0 mg/kg/injection, schedule: Q04DX003 (ip), vehicle: saline) was 98 % of control and the T/C (dose: 8.5 mg/kg/injection, schedule: Q01DX009 (ip), vehicle: saline with Tween-80) was 98 % of control. The T/C (dose: 8.5 mg/kg/injection, schedule: Q04DX003 (ip), vehicle: acetone) was 98 % of control, the T/C (dose: 12.0 mg/kg/injection, schedule: Q01DX001 (ip), vehicle: acetone) was 86 % of control and the T/C (dose: 12.0 mg/kg/injection, schedule: Q01DX009 (ip), vehicle: saline with Tween-80) was 95 % of control and 88 % of control. For the same molecule, the T/C (dose: 19.0 mg/kg/injection, schedule: Q01DX009 (ip), vehicle: saline with Tween-80) was 92 % of control and the T/C (dose: 28.0 mg/kg/injection, schedule: Q01DX009 (ip), vehicle: saline with Tween-80) was 106 % of control.
In the case of `C=CCCCCCCCCO`, the T/C (dose: 50.0 mg/kg/injection, schedule: Q01DX001 (ip), vehicle: saline) was 98 % of control, the T/C (dose: 100.0 mg/kg/injection, schedule: Q01DX001 (ip), vehicle: saline) was 95 % of control and the T/C (dose: 200.0 mg/kg/injection, schedule: Q01DX001 (ip), vehicle: saline) was 95 % of control.
With `COCCOC` the T/C (dose: 86.0 mg/kg/injection, schedule: Q01DX Z (ip), vehicle: saline) was 103 % of control, the T/C (dose: 100.0 mg/kg/injection, schedule: Q04DX003 (ip), vehicle: acetone) was 107 % of control and the T/C (dose: 125.0 mg/kg/injection, schedule: Q01DX Z (ip), vehicle: saline) was 106 % of control. The T/C (dose: 130.0 mg/kg/injection, schedule: Q01DX Z (ip), vehicle: saline) was 106 % of control, the T/C (dose: 200.0 mg/kg/injection, schedule: Q04DX003 (ip), vehicle: acetone) was 102 % of control and the T/C (dose: 250.0 mg/kg/injection, schedule: Q01DX Z (ip), vehicle: saline) was 113 % of control. For the same molecule, the T/C (dose: 400.0 mg/kg/injection, schedule: Q04DX003 (ip), vehicle: acetone) was 102 % of control, the T/C (dose: 450.0 mg/kg/injection, schedule: Q01DX Z (ip), vehicle: saline) was 154 % of control and the T/C (dose: 500.0 mg/kg/injection, schedule: Q01DX Z (ip), vehicle: saline) was 116 % of control. The T/C (dose: 675.0 mg/kg/injection, schedule: Q01DX Z (ip), vehicle: saline) was 150 % of control and 160 % of control and the T/C (dose: 1500.0 mg/kg/injection, schedule: Q01DX Z (ip), vehicle: saline) was 96 % of control.
In the case of `O=C(N/N=C(\C=N\NC(=O)c1ccccc1)CC(O)CO)c1ccccc1` (centres undefined), the T/C (dose: 25.0 mg/kg/injection, schedule: Q01DX009 (ip), vehicle: Klucel (hydroxypropylcellulose) (HPC)) was 93 % of control, the T/C (dose: 50.0 mg/kg/injection, schedule: Q01DX009 (ip), vehicle: Klucel (hydroxypropylcellulose) (HPC)) was 91 % of control and the T/C [1] was 91 % of control. The T/C (dose: 100.0 mg/kg/injection, schedule: Q04DX003 (ip), vehicle: saline with Tween-80) was 94 % of control and the T/C (dose: 200.0 mg/kg/injection, schedule: Q04DX003 (ip), vehicle: saline with Tween-80) was 93 % of control.
In the case of `COc1ccc(N=C(c2ccccc2)c2ccc([N+](=O)[O-])cc2)cc1`, the T/C [1] was 91 % of control, the T/C (dose: 100.0 mg/kg/injection, schedule: Q04DX003 (ip), vehicle: Klucel (hydroxypropylcellulose) (HPC)) was 93 % of control and the T/C (dose: 200.0 mg/kg/injection, schedule: Q01DX009 (ip), vehicle: Klucel (hydroxypropylcellulose) (HPC)) was 101 % of control. For the same molecule, the T/C (dose: 200.0 mg/kg/injection, schedule: Q04DX003 (ip), vehicle: Klucel (hydroxypropylcellulose) (HPC)) was 98 % of control, the T/C (dose: 400.0 mg/kg/injection, schedule: Q01DX009 (ip), vehicle: Klucel (hydroxypropylcellulose) (HPC)) was 98 % of control and the T/C (dose: 400.0 mg/kg/injection, schedule: Q04DX003 (ip), vehicle: Klucel (hydroxypropylcellulose) (HPC)) was 98 % of control.
In the case of `COC(=O)c1n[nH]c(C)c1N=NN(C)C`, the T/C (dose: 75.0 mg/kg/injection, schedule: Q01DX001 (ip), vehicle: saline) was 119 % of control and the T/C (dose: 150.0 mg/kg/injection, schedule: Q01DX001 (ip), vehicle: saline) was 123 % of control.
